{"source": "patent US8232296B2", "about": "“Salt 628” (Astrazeneca AB, priority 2009, dated 2012)", "key": {"[1]": {"assay": "Solubility of salts of compound (I) after 1 hour in 0.1 M HCl (Zymark Multidose G3, UV 337 nm)", "conditions": "after 1 hour in 900 ml of 0.1 M HCl, 75 rpm, 37° C.", "experimental": "The solubility (mg/ml) shown in Table 1 was measured after 1 hour in 900 ml of 0.1 M HCl and at 75 rpm and 37° C. using a Zymark Multidose G3 system. Analysis was made by UV spectrophotometer with a detection wavelength of 337 nm."}, "[2]": {"assay": "Solid state stability study (LC and XRPD)", "assay_type": "physicochemical", "method": "The solid state stability of compound (I) tosylate Form A was studied under four sets of conditions: at 25° C./desiccated; at 25° C./60% relative humidity (RH); 40° C./75% RH and 60° C./75% RH. Samples were examined (LC and XRPD) after 4, 8 and 12 weeks and chemical and physical stability were evaluated. […] It was concluded that compound (I) tosylate Form A has excellent and advantageous chemical and physical stability in the solid state under pharmaceutically relevant storage conditions."}, "[3]": {"assay": "Oral bioavailability study in the dog", "assay_type": "in vivo, Beagle dogs", "conditions": "Beagle, plasma", "method": "Beagle dogs (three dogs for each formulation) were administered orally with Compound (I) tosylate form A (dose equivalent to 1.0 mg/kg compound (I) free base) in a gelatine capsule or an aqueous suspension of 0.8 mg/kg crystalline compound (I) free base suspended in water together with 1.2% w/w Avicel and 0.1% w/w Polysorbate 80.\nAccordingly the bioavailability of compound (I) tosylate Form A was about 3 times higher than the free base."}, "[4]": {"assay": "Dissolution in 900 ml of 0.1 M HCl (pH 1), USP apparatus 2", "assay_type": "physicochemical", "conditions": "79 mg (corresponding to 60 mg free base) alone in a capsule; 900 ml 0.1 M HCl, 75 rpm, 37° C.", "method": "[…] The dissolution was measured in 900 ml of 0.1 M HCl (pH 1) and using a USP dissolution apparatus 2 (paddle) at 75 rpm and 37° C. in a fully automated system, Zymark Multidose G3.\nThe dissolution profile of tablet formulations A and B in Table 7 were determined in 900 ml of 0.1 M HCl (pH 1) and using a USP dissolution apparatus 2 (paddle) at 75 rpm and 37° C. in a fully automated system, Zymark Multidose G3."}, "[5]": {"assay": "Solubility of compound (I) tosylate in various dissolution media with time", "assay_type": "physicochemical", "conditions": "thermodynamic from solid, 37° C.", "description": "Therefore compound (I) tosylate is expected to improve the aqueous solubility of compound (I) for a sufficient period of time to allow enhanced absorption in man. Without wishing to be limited by theory, the enhanced solubility of compound (I) tosylate may arise from a combination of the inherent higher solubility of the compound (I) tosylate, and a continued high solubility when the compound (I) precipitates from solution as amorphous material, in aqueous media. The observed improved solubility may therefore reflect both the solubility of the amorphous material and the solubility of the compound (I) tosylate, which will be present in-vivo in varying ratios following oral administration of compound (I) tosylate as a result of the kinetic balance between dissolution and precipitation of compound (I). […] In Table 2, the columns marked “modification” refer to the form of the solid present in the dissolution medium at the relevant time point indicated. The data in Table 2 indicate that the solubility remains high for at least 3 hours, particularly at low pH, representative of the pH found in the stomach.\nSolubility was determined in 0.1 M HCl at pH 1.0, 0.2 M phosphate buffer at pH 3, 0.2 M phosphate buffer at pH 5.0, 0.2 M phosphate buffer at pH 6.5 and 0.2 M phosphate buffer at pH 8.\nTypically about 4 mg of test sample was added to a 1 ml Scantec glass tube. The experiment was started on addition of 800 μl of preheated test media using an automated Tecon robot system (Genesis Freedom 150). Incubation was at 37° C., in a thermoblock, shaken at 600 rpm. Samples were withdrawn after 1 hour, 3 hours and 24 h, triplicate samples for each media. The supernatant liquid was withdrawn from samples and filtered using a Whatman GF/B filter and diluted prior to analysis by LC (Agilent 1100 series with X Terra MSC18 column). The remaining solid in the sample tubes was characterised using XRPD."}, "[6]": {"assay": "Humidity sorption by gravimetrical vapour sorption (GVS)", "assay_type": "physicochemical", "conditions": "at 80% relative humidity (RH)", "method": "As such, compound (I) tosylate Form A is right at the border between slightly hygroscopic and non hygroscopic, according to the criteria defined in the European Pharmacopoeia.\nThe gravimetric responses of test samples to changes in humidity were investigated using a SGA 100 (VTI Corporation) Gravimetrical Vapour Sorption (GVS) instrument with the following features:\nDry to 90% RH and back, in steps of, for example, 10% RH.\nEquilibrium condition: <0.01 weight-% per 10 minutes (<0.001 weight-%/min)\nApproximately 5 mg of the test sample was placed in the cup and evaluated."}, "[7]": {"biological_target": "T1, Human Neutrophil Elastase (HNE) (Homo sapiens, UniProt P08246)", "T1 construct": "Human Neutrophil Elastase (HNE) purified from serum (Calbiochem art. 324681); purchased Calbiochem 324681; host or cells: purified from serum (so in the source); natural human source, not recombinant", "T1 sequence (P08246 30-247 limits assumed)": "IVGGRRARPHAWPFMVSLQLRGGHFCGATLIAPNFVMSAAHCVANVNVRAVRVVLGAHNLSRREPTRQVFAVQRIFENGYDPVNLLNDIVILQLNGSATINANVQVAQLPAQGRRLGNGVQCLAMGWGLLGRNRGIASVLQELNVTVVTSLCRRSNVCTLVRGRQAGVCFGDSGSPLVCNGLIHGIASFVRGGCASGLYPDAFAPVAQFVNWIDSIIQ", "assay": "Human Neutrophil Elastase Quenched-FRET assay", "assay_type": "biochemical", "conditions": "free base dissolved in DMSO; n=26; read-out: IC50 for inhibition of human neutrophil elastase activity", "method": "The assay uses Human Neutrophil Elastase (HNE) purified from serum (Calbiochem art. 324681; Ref. Baugh, R. J. et al., 1976, Biochemistry. 15, 836-841). […] The protease substrate used was Elastase Substrate V Fluorogenic, MeOSuc-AAPV-AMC (Calbiochem art. 324740; Ref. Castillo, M. J. et al., 1979, Anal. Biochem. 99, 53-64). The substrate was stored in dimethyl sulfoxide (DMSO) at −20° C. The assay additions were as follows: Test compounds and controls were added to black 96-well flat-bottom plates (Greiner 655076), 1.0 μL in 100% DMSO, followed by 30 μL HNE in assay buffer with 0.01% Triton (trade mark) X-100 detergent. The assay buffer constitution was: 100 mM Tris(hydroxymethyl)aminomethane (TRIS) (pH 7.5) and 500 mM NaCl. The enzyme and the compounds were incubated at room temperature for 15 minutes. Then 30 μl substrate in assay buffer was added. The assay was incubated for 30 minutes at room temperature. The concentrations of HNE enzyme and substrate during the incubation were 1.7 nM and 100 μM, respectively. The assay was then stopped by adding 60 μl stop solution (140 mM acetic acid, 200 mM sodium monochloroacetate, 60 mM sodium acetate, pH 4.3). Fluorescence was measured on a Wallac 1420 Victor 2 instrument at settings: Excitation 380 nm, Emission 460 nm. IC50 values were determined using Xlfit curve fitting using model 205."}}, "note": "Structures can show the parent of a compound that is named as a salt.", "data": [{"smiles": "Cc1c(-c2ccnn2C)cc(C(=O)NCc2ccc(S(C)(=O)=O)cn2)c(=O)n1-c1cccc(C(F)(F)F)c1", "note": "[compound (I) tosylate Form A, 6-methyl-5-(1-methyl-1H-pyrazol-5-yl)-N-{[5-(methylsulfonyl)pyridin-2-yl]methyl}-2-oxo-1-[3-(trifluoromethyl)phenyl]-1,2-dihydropyridine-3-carboxamide 4-methylbenzenesulfonate]", "values": [{"measurement": "Solubility", "setting": "[1]; 4-methylbenzenesulfonate", "value": 1200, "unit": "µg/mL"}, {"measurement": "solid state chemical and physical stability", "setting": "[2]; 25° C./desiccated, 25° C./60% RH, 40° C./75% RH, after 4, 8 and 12 weeks", "value": "no significant chemical or physical changes were observed"}, {"measurement": "solid state chemical and physical stability", "setting": "[2]; stressed 60° C./75% RH condition, 4, 8 and 12 weeks", "value": "some potential chemical degradation"}, {"measurement": "bioavailability", "setting": "[3]; gelatine capsule, dose equivalent to 1.0 mg/kg compound (I) free base", "value": "~38", "unit": "%"}, {"measurement": "dissolved within 30 minutes", "setting": "[4]", "value": "< 65", "unit": "%"}, {"measurement": "solubility at 1 h", "setting": "[5]; aqueous buffer, 0.2 M Phosphate buffer pH 3.0, 1 h", "value": "493 ± 97", "unit": "µM"}, {"measurement": "solubility at 3 h", "setting": "[5]; aqueous buffer, 0.2 M Phosphate buffer pH 3.0, 3 h", "value": "492 ± 115", "unit": "µM"}, {"measurement": "solubility at 24 h", "setting": "[5]; aqueous buffer, 0.2 M Phosphate buffer pH 3.0, 24 h", "value": "11.8 ± 0.9", "unit": "µM"}, {"measurement": "solubility at 1 h", "setting": "[5]; aqueous buffer, 0.2 M Phosphate buffer pH 5.0, 1 h", "value": "490 ± 42", "unit": "µM"}, {"measurement": "solubility at 3 h", "setting": "[5]; aqueous buffer, 0.2 M Phosphate buffer pH 5.0, 3 h", "value": "460 ± 54", "unit": "µM"}, {"measurement": "solubility at 24 h", "setting": "[5]; aqueous buffer, 0.2 M Phosphate buffer pH 5.0, 24 h", "value": "12.2 ± 0.6", "unit": "µM"}, {"measurement": "solubility at 1 h", "setting": "[5]; aqueous buffer, 0.2 M Phosphate buffer pH 6.5, 1 h", "value": "416 ± 48", "unit": "µM"}, {"measurement": "solubility at 3 h", "setting": "[5]; aqueous buffer, 0.2 M Phosphate buffer pH 6.5, 3 h", "value": "363 ± 86", "unit": "µM"}, {"measurement": "solubility at 24 h", "setting": "[5]; aqueous buffer, 0.2 M Phosphate buffer pH 6.5, 24 h", "value": "10.1 ± 0.8", "unit": "µM"}, {"measurement": "solubility at 1 h", "setting": "[5]; aqueous buffer, 0.2 M Phosphate buffer pH 8, 1 h", "value": "412 ± 29", "unit": "µM"}, {"measurement": "solubility at 3 h", "setting": "[5]; aqueous buffer, 0.2 M Phosphate buffer pH 8, 3 h", "value": "240 ± 35", "unit": "µM"}, {"measurement": "solubility at 24 h", "setting": "[5]; aqueous buffer, 0.2 M Phosphate buffer pH 8, 24 h", "value": "8.4 ± 0.7", "unit": "µM"}, {"measurement": "solubility at 1 h", "setting": "[5]; simulated gastric fluid, 0.1 M HCl pH 1.0, 1 h", "value": "1530 ± 129", "unit": "µM"}, {"measurement": "solubility at 3 h", "setting": "[5]; simulated gastric fluid, 0.1 M HCl pH 1.0, 3 h", "value": "1100 ± 145", "unit": "µM"}, {"measurement": "solubility at 24 h", "setting": "[5]; simulated gastric fluid, 0.1 M HCl pH 1.0, 24 h", "value": "58.4 ± 1.2", "unit": "µM"}, {"measurement": "humidity uptake", "setting": "[6]", "value": "around 0.2%"}]}, {"smiles": "Cc1c(-c2ccnn2C)cc(C(=O)NCc2ccc(S(C)(=O)=O)cn2)c(=O)n1-c1cccc(C(F)(F)F)c1", "note": "[compound (I), 6-methyl-5-(1-methyl-1H-pyrazol-5-yl)-N-{[5-(methylsulfonyl)pyridin-2-yl]methyl}-2-oxo-1-[3-(trifluoromethyl)phenyl]-1,2-dihydropyridine-3-carboxamide]", "values": [{"measurement": "Solubility", "setting": "[1]; listed as Compound (I) free base", "value": 40, "unit": "µg/mL"}, {"measurement": "IC50", "setting": "[7]", "value": 12, "unit": "nM"}, {"measurement": "bioavailability", "setting": "[3]; aqueous suspension of 0.8 mg/kg crystalline free base (1.2% w/w Avicel, 0.1% w/w Polysorbate 80)", "value": "~12", "unit": "%"}]}]}
